Like-named read-outs stand apart in the source and are kept apart here.

The subject of assay [1] is T-Rex 293 cell line SC3 cells lacking increased expression of androgen receptor protein. Nature of the assay: Cellular growth inhibition assay, T-Rex 293 SC3 cells without doxycycline (CellTiter-Glo, 72 hours). Format: cell-based. To be noted: T-Rex 293 cell line SC3 cells not exposed to doxycycline (lacking increased androgen receptor expression). The essentials: (§1)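 Growth inhibition is measured in an inducible AR-expressing T-Rex 293 clone, SC3, cultured with or without 10 ng/mL doxycycline in hormone-depleted medium. Test compounds are applied for 72 hours. GI50 values derive from CellTiter-Glo 2.0 signal fitted by four-parameter regression.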
On the technique in general: Cellular ATP, detected with luciferase, serves as a proxy for viable cell number.

For a further assay, the system named is VCaP cells. Nature of the assay: Cellular growth inhibition assay for VCaP cells (CellTiter-Glo, 72 hours). In kind it is cell-based, human. The essentials:
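Luminescent viability signal after 72 h of compound exposure gave GI50 values by four-parameter nonlinear regression. Compounds were added in 0.5% DMSO to cells plated 24 h earlier at 5000/well in DMEM containing 10% FBS.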

Assay [2] concerns T-Rex 293 cell line SC3 cells having increased expression of androgen receptor protein due to exposure to doxycycline. Description: Cellular growth inhibition assay, T-Rex 293 SC3 cells with doxycycline (CellTiter-Glo, 72 hours). In kind it is cell-based. Conditions: T-Rex 293 SC3 cells with increased androgen receptor expression due to doxycycline (10 ng/mL). A digest of the protocol: as §1

In the case of `Cc1sc2c(c1C)C(c1ccc(OCC3CC4(CCCN(c5ccc(C(=O)N[C@H]6CC[C@H](Oc7ccc(C#N)c(Cl)c7)CC6)nn5)C4)C3)cn1)=NC1(CC1)c1nnc(C)n1-2` (stereo partly drawn) [I-597], the GI50 – broadly, the concentration at which growth is held to half of that of the control – in assay [1] is more than 3 µM; in the assay on VCaP cells it was less than 0.5 µM; in assay [2], less than 0.5 µM.
Take `Cc1sc2c(c1C)C(c1ccc(N3CC(CC4CCCN(c5ccc(C(=O)N[C@H]6CC[C@H](Oc7ccc(C#N)c(Cl)c7)CC6)nn5)C4)C3)cc1)=NC1(CC1)c1nnc(C)n1-2` (stereo partly drawn) [I-598]: the GI50 (in assay [1]; with VCaP cells; in assay [2] (72 h)) was less than 0.5 µM in each case.
`CC[C@@H]1N=C(c2ccc(N3CCC4(CCN(c5ccc(C(=O)N[C@H]6CC[C@H](Oc7ccc(C#N)c(Cl)c7)CC6)nn5)CC4)C3)cc2)c2c(sc(C)c2C)-n2c(C)nnc21` [I-599]: the GI50 in assay [1] (72 h) was more than 3 µM; with VCaP cells (Homo sapiens, VCaP, 72 h) it was more than 3 µM; in assay [2] (72 h), less than 0.5 µM.
Take `COCC[C@@H]1N=C(c2ccc(N3CCC4(CCN(c5ccc(C(=O)N[C@H]6CC[C@H](Oc7ccc(C#N)c(Cl)c7)CC6)nn5)CC4)C3)cc2)c2c(sc(C)c2C)-n2c(C)nnc21` [I-600]: the GI50 in assay [1] (72 h) was less than 0.5 µM; in the assay on VCaP cells (Homo sapiens, VCaP, 72 h), more than 3 µM; in assay [2] (72 h), less than 0.5 µM.
Take `Cc1sc2c(c1C)C(c1ccc(N3CC4(CC(Cc5ccc(C(=O)N[C@H]6CC[C@H](Oc7ccc(C#N)c(Cl)c7)CC6)nn5)C4)C3)cc1)=N[C@@H](C)c1nnc(C)n1-2` [I-604]: the GI50 is less than 0.5 µM in assay [1] (72 h); less than 0.5 µM in the assay with VCaP cells (Homo sapiens, VCaP, 72 h); less than 0.5 µM in assay [2] (72 h).
Regarding `Cc1sc2c(c1C)C(c1ccc(N3CCC4(CC3)CC(Cc3ccc(C(=O)N[C@H]5CC[C@H](Oc6ccc(C#N)c(Cl)c6)CC5)nn3)C4)cc1)=N[C@@H](C)c1nnc(C)n1-2` [I-605], the GI50 in assay [1] (72 h) is more than 3 µM; in the assay on VCaP cells (Homo sapiens, VCaP, 72 h), less than 0.5 µM; in assay [2] (72 h) it was less than 0.5 µM.
Consider `Cc1sc2c(c1C)C(c1ccc(N3CCC(Cc4ccc(C(=O)N[C@H]5CC[C@H](Oc6ccc(C#N)c(Cl)c6)CC5)nn4)CC3)cc1)=N[C@@H](C)c1nnc(C)n1-2` [I-606], for which the GI50 was more than 3 µM in assay [1] (72 h); more than 3 µM in the assay on VCaP cells (Homo sapiens, VCaP, 72 h); less than 0.5 µM in assay [2] (72 h).
Take `Cc1sc2c(c1C)C(c1ccc(C3CCC4(CC3)CCN(c3ccc(C(=O)N[C@H]5CC[C@H](Oc6ccc(C#N)c(Cl)c6)CC5)nn3)C4)nc1)=NC1(CC1)c1nnc(C)n1-2` (stereo partly drawn) [I-607]: the GI50 in assay [1] was more than 3 µM; in the assay on VCaP cells, more than 3 µM; in assay [2] (72 h), less than 0.5 µM.
As for `Cc1sc2c(c1C)C(c1ccc(C3CCC4(CC3)CCN(c3ccc(C(=O)N[C@H]5CC[C@H](Oc6ccc(C#N)c(Cl)c6)CC5)nn3)C4)nc1)=NC1(CC1)c1nnc(C)n1-2` (stereo partly drawn) [I-608], the figures for the GI50 (in assay [1]; in the assay with VCaP cells; in assay [2]) were 0.5 to 1.5 µM, less than 0.5 µM and less than 0.5 µM, respectively.
Consider `Cc1sc2c(c1C)C(c1ccc(C3CCC4(CCN(c5ccc(C(=O)N[C@H]6CC[C@H](Oc7ccc(C#N)c(Cl)c7)CC6)nn5)CC4)C3)nc1)=NC1(CC1)c1nnc(C)n1-2` (stereo partly drawn) [I-609], for which the GI50 was 0.5 to 1.5 µM in assay [1]; less than 0.5 µM with VCaP cells (Homo sapiens, VCaP, 72 h); less than 0.5 µM in assay [2] (72 h).
On to `CC[C@@H]1N=C(c2ccc(N3CC4(CC(Cc5ccc(C(=O)N[C@H]6CC[C@H](Oc7ccc(C#N)c(Cl)c7)CC6)nn5)C4)C3)cc2)c2c(sc(C)c2C)-n2c(C)nnc21` [I-610], for which the concentration for 50% growth inhibition (GI50) in assay [1] (72 h) was more than 3 µM; in the assay on VCaP cells (Homo sapiens, VCaP, 72 h), 0.5 to 1.5 µM; in assay [2] (72 h) it was less than 0.5 µM.
For the compound `CC[C@@H]1N=C(c2ccc(N3CC4(CC(CCc5ccc(C(=O)N[C@H]6CC[C@H](Oc7ccc(C#N)c(Cl)c7)CC6)nn5)C4)C3)cc2)c2c(sc(C)c2C)-n2c(C)nnc21` [I-611], the GI50 was more than 3 µM in assay [1] (72 h); less than 0.5 µM in the assay with VCaP cells (Homo sapiens, VCaP, 72 h); less than 0.5 µM in assay [2] (72 h).
As to `CC[C@@H]1N=C(c2ccc(N3CCC4(CC3)CC(Cc3ccc(C(=O)N[C@H]5CC[C@H](Oc6ccc(C#N)c(Cl)c6)CC5)nn3)C4)cc2)c2c(sc(C)c2C)-n2c(C)nnc21` [I-612], the GI50 in assay [1] (72 h) is more than 3 µM; in the assay with VCaP cells (Homo sapiens, VCaP, 72 h) it was less than 0.5 µM; in assay [2] (72 h), less than 0.5 µM.
Turning to `CC[C@@H]1N=C(c2ccc(N3CCC(CCc4ccc(C(=O)N[C@H]5CC[C@H](Oc6ccc(C#N)c(Cl)c6)CC5)nn4)CC3)cc2)c2c(sc(C)c2C)-n2c(C)nnc21` [I-613], the GI50 in assay [1] (72 h) is 1.5 to 3 µM; in the assay with VCaP cells (Homo sapiens, VCaP, 72 h), less than 0.5 µM; in assay [2] (72 h), less than 0.5 µM.
As for `CC[C@@H]1N=C(c2ccc(N3CCC(Cc4ccc(C(=O)N[C@H]5CC[C@H](Oc6ccc(C#N)c(Cl)c6)CC5)nn4)CC3)cc2)c2c(sc(C)c2C)-n2c(C)nnc21` [I-614], the GI50 in assay [1] (72 h) was 0.5 to 1.5 µM; in the assay on VCaP cells (Homo sapiens, VCaP, 72 h) it was less than 0.5 µM; in assay [2] (72 h), less than 0.5 µM.
As to `COC[C@@H]1N=C(c2ccc(N3CCC4(CCN(c5ccc(C(=O)N[C@H]6CC[C@H](Oc7ccc(C#N)c(Cl)c7)CC6)nn5)CC4)C3)cc2)c2c(sc(C)c2C)-n2c(C)nnc21` [I-615], the GI50 in assay [1] (72 h) was less than 0.5 µM; in the assay on VCaP cells (Homo sapiens, VCaP, 72 h), less than 0.5 µM; in assay [2] (72 h) it was less than 0.5 µM.
`COCC[C@@H]1N=C(c2ccc(C3CCC4(CCN(c5ccc(C(=O)N[C@H]6CC[C@H](Oc7ccc(C#N)c(Cl)c7)CC6)nn5)CC4)C3)cc2)c2c(sc(C)c2C)-n2c(C)nnc21` (stereo partly drawn) [I-616]: the GI50 in assay [1] (72 h) is less than 0.5 µM; with VCaP cells, more than 3 µM; in assay [2] (72 h), less than 0.5 µM.
As to `COCC[C@@H]1N=C(c2ccc(C3CCC4(CCN(c5ccc(C(=O)N[C@H]6CC[C@H](Oc7ccc(C#N)c(Cl)c7)CC6)nn5)CC4)C3)cc2)c2c(sc(C)c2C)-n2c(C)nnc21` (stereo partly drawn) [I-617], the values for the GI50 (in assay [1]; with VCaP cells; in assay [2]) were 0.5 to 1.5 µM, less than 0.5 µM and less than 0.5 µM, respectively.
Consider `Cc1sc2c(c1C)C(c1ccc(N3CCC4CN(c5ccc(C(=O)N[C@H]6CC[C@H](Oc7ccc(C#N)c(Cl)c7)CC6)nn5)CCC4C3)cc1)=N[C@@H](C)c1nnc(C)n1-2` (stereo partly drawn) [I-620], for which the GI50 (in assay [1]; in the assay on VCaP cells; in assay [2]) was less than 0.5 µM throughout.
Consider `Cc1sc2c(c1C)C(c1ccc(N3CCC4CN(c5ccc(C(=O)N[C@H]6CC[C@H](Oc7ccc(C#N)c(Cl)c7)CC6)nn5)CCC4C3)cc1)=N[C@@H](C)c1nnc(C)n1-2` (stereo partly drawn) [I-621], for which the GI50 in assay [1] is more than 3 µM; in the assay with VCaP cells, 0.5 to 1.5 µM; in assay [2], less than 0.5 µM.
Turning to `Cc1sc2c(c1C)C(c1ccc(CC3CCC4(CCCN(c5ccc(C(=O)N[C@H]6CC[C@H](Oc7ccc(C#N)c(Cl)c7)CC6)nn5)C4)C3)cn1)=N[C@@H](C)c1nnc(C)n1-2` (stereo partly drawn) [I-622], the GI50 in assay [1] (72 h) was less than 0.5 µM; in the assay on VCaP cells it was more than 3 µM; in assay [2] (72 h), less than 0.5 µM.
Consider `Cc1sc2c(c1C)C(c1ccc(CC3CCC4(CCCN(c5ccc(C(=O)N[C@H]6CC[C@H](Oc7ccc(C#N)c(Cl)c7)CC6)nn5)C4)C3)cn1)=N[C@@H](C)c1nnc(C)n1-2` (stereo partly drawn) [I-623], for which the GI50 is 0.5 to 1.5 µM in assay [1], 0.5 to 1.5 µM with VCaP cells and less than 0.5 µM in assay [2].
For `Cc1sc2c(c1C)C(c1ccc(COC3CCC4(CCCN(c5ccc(C(=O)N[C@H]6CC[C@H](Oc7ccc(C#N)c(Cl)c7)CC6)nn5)C4)C3)cc1)=N[C@@H](C)c1nnc(C)n1-2` (stereo partly drawn) [I-624], the GI50 was 0.5 to 1.5 µM in assay [1], 0.5 to 1.5 µM with VCaP cells and less than 0.5 µM in assay [2].
Turning to `Cc1sc2c(c1C)C(c1ccc(COC3CCC4(CCCN(c5ccc(C(=O)N[C@H]6CC[C@H](Oc7ccc(C#N)c(Cl)c7)CC6)nn5)C4)C3)cc1)=N[C@@H](C)c1nnc(C)n1-2` (stereo partly drawn) [I-625], the GI50 (in assay [1]; with VCaP cells; in assay [2]) was less than 0.5 µM throughout.

These data come from patent publication US20260109707A1, “HETEROBIFUNCTIONAL COMPOUNDS AND METHODS OF TREATING DISEASE” (Halda Therapeutics OpCo. Inc., priority 2022, published 2026).
